The structures appear in SMILES notation. “And” between values parts separate entries of the source, which are not always exact repeats. Identical values can stand only once. Inconclusive results and toxic doses are left out.

This experiment deals with P388 leukemia ip, CD2F1 mice, survival T/C. Description: NCI In Vivo Anticancer Drug Screen. Data for tumor model P388 Leukemia (intraperitoneal) in CD2F1 (CDF1) mice. Conditions: endpoint: median survival time, higher = longer survival. The method, boiled down:
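Mice carrying the transplanted tumor received test compound or vehicle. Survival was recorded in each group, and the value is the treated-group measurement divided by that of the vehicle-treated control group.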

The mark [1] stands for this setting: dose: 50.0 mg/kg/injection, schedule: Q01DX009 (ip), vehicle: Klucel (hydroxypropylcellulose) (HPC).
The mark [2] stands for this setting: dose: 100.0 mg/kg/injection, schedule: Q01DX009 (ip), vehicle: Klucel (hydroxypropylcellulose) (HPC).
The mark [3] stands for this setting: dose: 12.5 mg/kg/injection, schedule: Q01DX009 (ip), vehicle: Klucel (hydroxypropylcellulose) (HPC).
The mark [4] stands for this setting: dose: 25.0 mg/kg/injection, schedule: Q01DX009 (ip), vehicle: Klucel (hydroxypropylcellulose) (HPC).

In the case of `COc1cc(NCc2ccc3nc(N)nc(N)c3c2C)cc(OC)c1OC` (tested in a mixture with another compound), the T/C is, setting by setting: (dose: 2.6 mg/kg/injection, schedule: Q03HX024 (ip), vehicle: water) 166 % of control; (dose: 5.0 mg/kg/injection, schedule: Q03HX024 (ip), vehicle: water) 182 % of control; (dose: 5.2 mg/kg/injection, schedule: Q03HX024 (ip), vehicle: water) 192 % of control; (dose: 6.25 mg/kg/injection, schedule: Q03HX008 (sc), vehicle: water) 114 % of control; (dose: 6.9 mg/kg/injection, schedule: Q01DX009 (oral), vehicle: water) 119 % of control; (dose: 10.0 mg/kg/injection, schedule: Q03HX024 (ip), vehicle: water) 201 % of control. In addition, the T/C is, setting by setting: (dose: 10.4 mg/kg/injection, schedule: Q03HX024 (ip), vehicle: water) 217 % of control; (dose: 12.5 mg/kg/injection, schedule: Q03HX008 (sc), vehicle: water) 118 % of control; (dose: 13.8 mg/kg/injection, schedule: Q01DX009 (ip), vehicle: water) 175 % of control; (dose: 13.8 mg/kg/injection, schedule: Q01DX009 (oral), vehicle: water) 156 % of control; (dose: 20.0 mg/kg/injection, schedule: Q03HX024 (ip), vehicle: water) 230 % of control; (dose: 20.8 mg/kg/injection, schedule: Q03HX024 (ip), vehicle: water) 233 % of control. Besides, the T/C is 153 % of control and 154 % of control (dose: 25.0 mg/kg/injection, schedule: Q01DX005 (ip), vehicle: water); 118 % of control (dose: 25.0 mg/kg/injection, schedule: Q01DX005 (sc), vehicle: water); 123 % of control (dose: 25.0 mg/kg/injection, schedule: Q03HX008 (sc), vehicle: water); 185 % of control (dose: 27.7 mg/kg/injection, schedule: Q01DX009 (ip), vehicle: water); 163 % of control (dose: 27.7 mg/kg/injection, schedule: Q01DX009 (oral), vehicle: water); 223 % of control (dose: 40.0 mg/kg/injection, schedule: Q03HX024 (ip), vehicle: water). Further, the T/C reads like this: (dose: 41.6 mg/kg/injection, schedule: Q03HX024 (ip), vehicle: water) 103 % of control; (dose: 50.0 mg/kg/injection, schedule: Q01DX005 (ip), vehicle: water) 150 % of control and 160 % of control; (dose: 50.0 mg/kg/injection, schedule: Q01DX005 (iv), vehicle: water) 166 % of control; (dose: 55.5 mg/kg/injection, schedule: Q01DX009 (ip), vehicle: water) 208 % of control; (dose: 55.5 mg/kg/injection, schedule: Q01DX009 (oral), vehicle: water) 211 % of control; (dose: 62.5 mg/kg/injection, schedule: Q01DX001 (ip), vehicle: water) 109 % of control. For the same compound, the T/C is, setting by setting: (dose: 62.5 mg/kg/injection, schedule: Q01DX001 (iv), vehicle: water) 117 % of control; (dose: 75.0 mg/kg/injection, schedule: Q03HX008 (sc), vehicle: water) 163 % of control; (dose: 100.0 mg/kg/injection, schedule: Q01DX005 (ip), vehicle: water) 155 % of control and 173 % of control; (dose: 100.0 mg/kg/injection, schedule: Q01DX005 (sc), vehicle: water) 163 % of control; (dose: 111.1 mg/kg/injection, schedule: Q01DX009 (oral), vehicle: water) 98 % of control; (dose: 125.0 mg/kg/injection, schedule: Q01DX001 (ip), vehicle: water) 115 % of control. Also, the T/C runs as follows: (dose: 200.0 mg/kg/injection, schedule: Q01DX005 (sc), vehicle: water) 95 % of control; (dose: 50.0 micrograms per hour, schedule: Q#X X024 (sc), vehicle: water) 120 % of control; (dose: 50.0 micrograms per hour, schedule: Q#X X048 (sc), vehicle: water) 123 % of control; (dose: 50.0 micrograms per hour, schedule: Q#X X072 (sc), vehicle: water) 163 % of control; (dose: 70.0 micrograms per hour, schedule: Q#X X006 (iv), vehicle: water) 112 % of control; (dose: 85.0 micrograms per hour, schedule: Q#X X006 (iv), vehicle: water) 121 % of control. Further, the T/C was 118 % of control (dose: 100.0 micrograms per hour, schedule: Q#X X024 (sc), vehicle: water); 112 % of control (dose: 100.0 micrograms per hour, schedule: Q#X X120 (sc), vehicle: water); 181 % of control (dose: 200.0 micrograms per hour, schedule: Q#X X072 (sc), vehicle: water); 94 % of control (dose: 200.0 micrograms per hour, schedule: Q#X X120 (sc), vehicle: water).

With `CC(C)(O)c1cccc2c(C(C)(C)O)cccc12`, the T/C under setting [1] is 88 % of control; the T/C under setting [2] was 97 % of control; the T/C (dose: 200.0 mg/kg/injection, schedule: Q01DX009 (ip), vehicle: Klucel (hydroxypropylcellulose) (HPC)) was 93 % of control and 94 % of control; the T/C (dose: 400.0 mg/kg/injection, schedule: Q01DX009 (ip), vehicle: Klucel (hydroxypropylcellulose) (HPC)) was 91 % of control.

As for `Cc1ccc(-c2csc(=NCCc3ccccc3)n2-c2ccc(C)cc2)cc1`, the T/C is, setting by setting: (dose: 12.5 mg/kg/injection, schedule: Q04DX002 (ip), vehicle: saline with Tween-80) 97 % of control; (dose: 25.0 mg/kg/injection, schedule: Q04DX002 (ip), vehicle: saline with Tween-80) 99 % of control; (dose: 50.0 mg/kg/injection, schedule: Q04DX002 (ip), vehicle: saline with Tween-80) 88 % of control; (dose: 100.0 mg/kg/injection, schedule: Q04DX002 (ip), vehicle: saline with Tween-80) 88 % of control; (dose: 400.0 mg/kg/injection, schedule: Q04DX002 (ip), vehicle: saline with Tween-80) 93 % of control.

With `COc1cncn2nc(C)nc12`, the T/C by setting is: (dose: 60.0 mg/kg/injection, schedule: Q01DX005 (ip), vehicle: saline) 100 % of control; (dose: 120.0 mg/kg/injection, schedule: Q01DX005 (ip), vehicle: saline) 99 % of control; (dose: 240.0 mg/kg/injection, schedule: Q01DX005 (ip), vehicle: saline) 93 % of control.

Take `CC(C)=CCSc1ccccc1`: the T/C runs as follows: (dose: 100.0 mg/kg/injection, schedule: Q04DX002 (ip), vehicle: Klucel (hydroxypropylcellulose) (HPC)) 104 % of control; (dose: 200.0 mg/kg/injection, schedule: Q04DX002 (ip), vehicle: Klucel (hydroxypropylcellulose) (HPC)) 106 % of control; (dose: 400.0 mg/kg/injection, schedule: Q04DX002 (ip), vehicle: Klucel (hydroxypropylcellulose) (HPC)) 109 % of control.

As to `Nc1ncnc(Nc2ccc(C(F)(F)F)cc2)n1`, the T/C by setting is: under setting [3], 118 % of control; under setting [4], 107 % of control; under setting [1], 93 % of control; under setting [2], 87 % of control.

Take `OCCN1CCN(c2c3ccccc3nc3ccccc23)CC1`: the T/C by setting is: (dose: 25.0 mg/kg/injection, schedule: Q04DX003 (ip), vehicle: saline) 100 % of control; (dose: 50.0 mg/kg/injection, schedule: Q04DX003 (ip), vehicle: saline) 100 % of control.

Regarding `c1ccc2c(c1)c1ccccc1c1n[se]nc21`, the T/C runs as follows: (dose: 15.0 mg/kg/injection, schedule: Q01DX005 (ip), vehicle: saline with Tween-80) 90 % of control; (dose: 30.0 mg/kg/injection, schedule: Q01DX005 (ip), vehicle: saline with Tween-80) 90 % of control; (dose: 60.0 mg/kg/injection, schedule: Q01DX005 (ip), vehicle: saline with Tween-80) 98 % of control.

For `N#CSc1ccc2nc(NC(NC=O)C(Cl)(Cl)Cl)sc2c1` (stereo not drawn), the T/C (dose: 6.25 mg/kg/injection, schedule: Q01DX009 (ip), vehicle: Klucel (hydroxypropylcellulose) (HPC)) was 105 % of control; the T/C under setting [3] was 110 % of control; the T/C under setting [4] was 103 % of control.

In the case of `O=C1C(=O)C(CN2CCOCC2)=C(N2CCOCC2)C(N2CCOCC2)=C1CN1CCOCC1`, the T/C was 100 % of control (dose: 25.0 mg/kg/injection, schedule: Q01DX005 (ip), vehicle: saline with Tween-80); 100 % of control (dose: 50.0 mg/kg/injection, schedule: Q01DX005 (ip), vehicle: saline with Tween-80); 98 % of control (dose: 100.0 mg/kg/injection, schedule: Q01DX005 (ip), vehicle: saline with Tween-80); 100 % of control (dose: 200.0 mg/kg/injection, schedule: Q01DX005 (ip), vehicle: saline with Tween-80).

Consider `COc1cc2c3cc1Oc1c(OC)c(OC)cc4c1[C@@H](Cc1ccc(O)c(c1)Oc1ccc(cc1)C[C@@H]3N(C)CC2)N(C)CC4`, for which the T/C reads like this: (dose: 60.0 mg/kg/injection, schedule: Q01DX005 (ip), vehicle: Klucel (hydroxypropylcellulose) (HPC)) 102 % of control and 106 % of control; (dose: 120.0 mg/kg/injection, schedule: Q01DX005 (ip), vehicle: Klucel (hydroxypropylcellulose) (HPC)) 118 % of control and 113 % of control.

Values taken from PubChem BioAssay AID330 (DTP/NCI, 2004).
